Experimental data reported in patent EP4732840A1, “AGENT FOR SUPPRESSING PROLIFERATION OF BACTERIA, AND COSMETIC, QUASI-DRUG, AND PHARMACEUTICAL COMPOSITION CONTAINING SAID AGENT, AND METHOD FOR SUPPRESSING PROLIFERATION OF BACTERIA” (Toyo Sugar Refining Co., Ltd., priority 2023, dated 2024).

Tests used:
Staphylococcus aureus [1] = test: Proliferation test with paper disc on agar plate (growth inhibition zone); type: cell-based, Staphylococcus aureus (NBRC 13276); settings: test substance (COSARTE-2G or glycerin) diluted to 40% by mass, 50 µL on paper disc; BHI agar, 48 hours
Description: (§1) As glyceryl glucoside, COSARTE-2G (manufactured by Toyo Sugar Refining Co., Ltd.) was diluted with ion-exchanged water such that COSARTE-2G was 40% by mass. Further, as a positive control, BD (Sensi-Disc Tetracycline 30, Antimicrobial Susceptibility Test Kit, manufactured by Nippon Becton Dickinson Company, Ltd.) was used. As a control, glycerin (manufactured by Nacalai Tesque Inc.) was diluted with ion-exchanged water to be 40% by mass.
Staphylococcus aureus (NBRC 13276) was used as a representative strain of Staphylococcus aureus. A Staphylococcus aureus strain was added to BHI liquid medium and pre-cultured at 37°C.
(§2) GAM agar plates and BHI agar plates were prepared. Pre-cultured Propionibacterium acnes, Streptococcus mutans, and Staphylococcus aureus strains in the logarithmic growth phase were suspended in liquid medium to a concentration of 1 × 10^7 cells/mL, and 50 µL of this suspension was taken and spread onto each agar plate medium using a glass spreader.
(§3) Each test substance was sterilized by filtration using a membrane filter, and then 50 µL was impregnated into a sterilized paper disc. […]
(§4) The effect of inhibiting the proliferation of bacteria was determined by the presence or absence and size of the growth inhibition zone around the paper disc.

Propionibacterium acnes = test: as above; type: cell-based, Propionibacterium acnes (JCM 6425); settings: test substance (COSARTE-2G or glycerin) diluted to 40% by mass, 50 µL on paper disc; GAM agar, anaerobic, 48 hours
Description: as §1
Propionibacterium acnes (JCM 6425) was used as a representative strain of Propionibacterium acnes. A Propionibacterium acnes strain was added to GAM liquid medium and pre-cultured at 35°C under anaerobic conditions using an AnaeroPack.
as §2, §3, §4

Streptococcus mutans = test: as above; type: cell-based, Streptococcus mutans (JCM 5705); settings: test substance (COSARTE-2G or glycerin) diluted to 40% by mass, 50 µL on paper disc; BHI agar, 48 hours
Description: as §1
Streptococcus mutans (JCM 5705) was used as a representative strain of Streptococcus mutans. A Streptococcus mutans strain was added to BHI liquid medium and pre-cultured at 35°C.
as §2
Each test substance was sterilized by filtration using a membrane filter, and then 50 µL was impregnated into a sterilized paper disc. A paper disk was aseptically placed on an agar plate medium, and cultured for 48 hours under conditions suitable for each bacterial strain.
as §4

Lactobacillus iners = test: Bacterial proliferation test (turbidity, absorbance at 600 nm); type: cell-based, Lactobacillus iners (ATCC 55195); settings: C-mo 2G at final concentrations of 0.5%, 1.0%, 2.0% in medium; 3 culture days, 37°C, 5%CO2; n = 3
Excerpt: (§5) C-mo2G (manufactured by Toyo Sugar Refining Co., Ltd.) was used as glyceryl glucoside. Furthermore, as a positive control, penicillin-streptomycin (manufactured by FUJIFILM Wako Pure Chemical Corporation, No. 168-23191) was used. Sterile water was used as a control.
(§6) Bacteria and media shown in Table 1 were used, and cultured under the conditions in Table 1.
(§7) As a GAM semi-fluid high layer medium, NO.05424 manufactured by NISSUI PHARMACEUTICAL CO., LTD. was used.
(§8) The number of culture days was set to such a number of days that bacterial proliferation could be visually confirmed in the control.
(§9) Each bacterium in which a frozen stock (15% (vol/vol) glycerin was added to the medium) was inoculated into 9 mL of the medium, and culture was started. After culturing until reaching the logarithmic growth phase, the medium was well stirred to make the turbidity uniform, and then the absorbance at 600 nm was measured. The medium was diluted with a medium such that the absorbance (600 nm) was 0.1, and this was used as a bacterial diluent.
(§10) C-mo 2G was added to the medium at final concentrations of 0.5%, 1.0%, and 2.0%. […]
(§11) 200 µL of the bacterial diluent was added to 9 mL of the medium containing the test substance, and culture was started. After culturing, the medium was well stirred to make the turbidity uniform, and then the absorbance (turbidity) at 600 nm was measured. […]

Lactobacillus crispatus = test: as above; type: cell-based, Lactobacillus crispatus (ATCC 33820); settings: C-mo 2G at final concentrations of 0.5%, 1.0%, 2.0% in medium; 1 culture day, 37°C, 5%CO2; n = 3
Excerpt: as §5, §6, §7, §8, §9, §10, §11

Gardnerella vaginalis = test: as above; type: cell-based, Gardnerella vaginalis (ATCC 14018); settings: C-mo 2G at final concentrations of 0.5%, 1.0%, 2.0% in medium; 3 culture days, 37°C, 5%CO2; n = 3; effect concentration dependent
Excerpt: as §5, §6, §7, §8, §9, §10, §11

Phototoxicity test = type: in vivo; settings: guinea pig
Atopobium vaginae = test: Bacterial proliferation test (turbidity, absorbance at 600 nm); type: cell-based, Atopobium vaginae (ATCC BAA-55); settings: C-mo 2G at final concentrations of 0.5%, 1.0%, 2.0% in medium; 2 culture days, 37°C, anaerobic; n = 3; effect concentration dependent
Excerpt: as §5, §6, §7, §8
An experiment was performed using Atopobium vaginae as a representative bacterium of the genus Atopobium.
as §9, with “diluent. […]” for “diluent.”
as §11

Water solubility = type: physicochemical
Eye irritation test = type: in vivo; settings: rabbit
Photosensitization test = settings: in vivo
[2] = Repeated skin irritation test; settings: in vivo
Human patch test = type: in vivo
[3] = Skin sensitization test (intracutaneous Maximization method); type: in vivo; settings: guinea pig intracutaneous Maximization method
[4] = Mutagenicity test (in vitro)
[5] = Primary skin irritation test; type: in vivo; settings: rabbit
Staphylococcus aureus [6] = settings: viable count after 24 hours or 48 hours exposure; Patent Literature 2; cited from earlier work
[7] = system: Staphylococcus epidermidis; settings: viable count after 24 hours or 48 hours exposure; Patent Literature 2; cited from earlier work
Pseudomonas aeruginosa = settings: viable count after 24 hours or 48 hours exposure; Patent Literature 2; cited from earlier work
Pseudomonas cepacia = settings: viable count after 24 hours or 48 hours exposure; Patent Literature 2; cited from earlier work
[8] = system: Corynebacterium minutissimum; settings: viable count after 24 hours or 48 hours exposure; Patent Literature 2; cited from earlier work
[9] = reported in Patent Literature 2; cited from earlier work
Escherichia coli = settings: viable count after 24 hours or 48 hours exposure; Patent Literature 2; cited from earlier work

For OCC(O)CO [Glycerin, glycerin, reference compound], which “growth inhibition zone around the paper disc, Staphylococcus aureus” value (Staphylococcus aureus [1]) is on record?
The value was “same result as glyceryl glucoside”.

And the “growth inhibition zone around the paper disc, Propionibacterium acnes” value (Propionibacterium acnes)?
Its value is “same result as glyceryl glucoside”.

And the “growth inhibition zone around the paper disc, Streptococcus mutans” value (Streptococcus mutans)?
The value was “same result as glyceryl glucoside”.

With glyceryl glucoside as the compound, how does the “proliferation of Lactobacillus iners (number of bacteria, absorbance 600 nm) relative to control” value (Lactobacillus iners) read?
Its value is “increased”.

And the “growth inhibition zone around the paper disc, Staphylococcus aureus” value (Staphylococcus aureus [1])?
The value was “no growth inhibition zone”.

What about the “proliferation of Lactobacillus crispatus (number of bacteria, absorbance 600 nm) relative to control” value (Lactobacillus crispatus) of the same compound?
Its value is “little change in the number”.

And the “growth inhibition zone around the paper disc, Propionibacterium acnes” value (Propionibacterium acnes)?
The value was “no growth inhibition zone”.

And the “proliferation of Gardnerella vaginalis (absorbance 600 nm) relative to control” value (Gardnerella vaginalis)?
The value was “significantly inhibited”.

What about the “toxicity in phototoxicity test” value (Phototoxicity test) of the same compound?
Its value is “no toxicity”.

What about the “proliferation of Atopobium vaginae (absorbance 600 nm) relative to control” value (Atopobium vaginae) of the same compound?
The value was “significantly inhibited”.

And the water solubility (Water solubility)?
The water solubility was “good”.

And the “toxicity in eye irritation test” value (Eye irritation test)?
Its value is “no toxicity”.

What about the “toxicity in photosensitization test” value (Photosensitization test) of the same compound?
The value was “no toxicity”.

What about the “growth inhibition zone around the paper disc, Streptococcus mutans” value (Streptococcus mutans) of the same compound?
The value was “no growth inhibition zone”.

And the “toxicity in repeated skin irritation test” value [2]?
Its value is “no toxicity”.

And the “toxicity in human patch test” value (Human patch test)?
The value was “no toxicity”.

What about the “toxicity in skin sensitization test” value [3] of the same compound?
The value was “no toxicity”.

What about the “toxicity in mutagenicity test” value [4] of the same compound?
Its value is “no toxicity”.

And the “toxicity in primary skin irritation test” value [5]?
The value was “no toxicity”.

Which “antimicrobial activity against Staphylococcus aureus” value (Staphylococcus aureus [6]) does the source give for α-D-glucopyranosylglycerol here?
Its value is “antimicrobial activity”.

What about the “antimicrobial activity against Staphylococcus epidermidis” value [7] of the same compound?
The value was “antimicrobial activity”.

What about the “antimicrobial activity against Pseudomonas aeruginosa” value (Pseudomonas aeruginosa) of the same compound?
Its value is “antimicrobial activity”.

And the “antimicrobial activity against Pseudomonas cepacia” value (Pseudomonas cepacia)?
Its value is “antimicrobial activity”.

And the “antimicrobial activity against Corynebacterium minutissimum” value [8]?
Its value is “antimicrobial activity”.

What about the skin irritation [9] of the same compound?
Its skin irritation is “no skin irritation”.

What about the “antimicrobial activity against Escherichia coli” value (Escherichia coli) of the same compound?
The value was “antimicrobial activity”.
